Tests used:
Assay in all cases: relative viability (nuclei count vs DMSO), 5 days (fraction); higher = more cells survive
[1] = compound: CC1CC(=O)N(C2=CN=C(N=C2N1C3CCCC3)NC4=C(C=C(C=C4)C(=O)NC5CCN(CC5)C)OC)C [NPK76-II-72-1] + Cc1cc(Nc2cc(N3CCN(C)CC3)nc(Sc3ccc(NC(=O)C4CC4)cc3)n2)n[nH]1 [Tozasertib] (partner 0.1 µM)
In short: (§1)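 Relative viability equals treated-well nuclei counts divided by vehicle-well nuclei counts. Counts came from 4× images of lung cancer cell lines grown in 1536-well plates for 5 days after pin-tool dosing on the day after seeding. Dosing used one drug alone or a fixed anchor-drug dose plus five library-drug doses (not always all listed) in √10 steps, and values are medians of duplicate plates.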

[2] = compound: CC1CC(=O)N(C2=CN=C(N=C2N1C3CCCC3)NC4=C(C=C(C=C4)C(=O)NC5CCN(CC5)C)OC)C [NPK76-II-72-1] + N=C(N)NC(=N)NCCc1ccccc1 [Phenformin] (partner 250 µM)
In short: as §1

BI-2536 + Bortezomib = compound: CC[C@@H]1C(=O)N(C)c2cnc(Nc3ccc(C(=O)NC4CCN(C)CC4)cc3OC)nc2N1C1CCCC1 [BI-2536] + CC(C)C[C@H](NC(=O)[C@H](Cc1ccccc1)NC(=O)c1cnccn1)B(O)O [Bortezomib] (partner 0.002 µM)
In short: as §1

BI-2536 + Lapatinib = compound: CC[C@@H]1C(=O)N(C)c2cnc(Nc3ccc(C(=O)NC4CCN(C)CC4)cc3OC)nc2N1C1CCCC1 [BI-2536] + CS(=O)(=O)CCNCc1ccc(-c2ccc3ncnc(Nc4ccc(OCc5cccc(F)c5)c(Cl)c4)c3c2)o1 [Lapatinib] (partner 2 µM)
In short: as §1

Cell Line | relative viability ([1]; first compound 0.01 µM) | relative viability ([1]; first compound 0.03162 µM) | relative viability ([1]; first compound 0.1 µM) | relative viability ([1]; first compound 0.3162 µM) | relative viability ([1]; first compound 1 µM) | relative viability ([2]; first compound 0.01 µM) | relative viability ([2]; first compound 0.03162 µM) | relative viability ([2]; first compound 0.1 µM) | relative viability ([2]; first compound 0.3162 µM) | relative viability ([2]; first compound 1 µM) | relative viability (BI-2536 + Bortezomib; first compound 0.01 µM) | relative viability (BI-2536 + Bortezomib; first compound 0.03162 µM) | relative viability (BI-2536 + Bortezomib; first compound 0.1 µM) | relative viability (BI-2536 + Bortezomib; first compound 0.3162 µM) | relative viability (BI-2536 + Bortezomib; first compound 1 µM) | relative viability (BI-2536 + Lapatinib; first compound 0.01 µM) | relative viability (BI-2536 + Lapatinib; first compound 0.03162 µM) | relative viability (BI-2536 + Lapatinib; first compound 0.1 µM) | relative viability (BI-2536 + Lapatinib; first compound 0.3162 µM) | relative viability (BI-2536 + Lapatinib; first compound 1 µM)
HARA | 0.124 | 0.0912 | 0.116 | 0.106 | 0.108 | 0.419 | 0.408 | 0.486 | 0.434 | 0.509 | 1.19 | 1.27 | 0.751 | 0.0898 | 0.0779 | 0.703 | 0.814 | 0.569 | 0.0764 | 0.0911
IA-LM |  |  |  |  |  |  |  |  |  |  | 0.772 | 0.623 | 0.0686 | 0.0705 | 0.0718 | 0.699 | 0.639 | 0.408 | 0.139 | 0.0816
LCLC-103H | 0.46 | 0.508 | 0.437 | 0.466 | 0.488 | 0.273 | 0.363 | 0.342 | 0.329 | 0.342 | 1.05 | 1.07 | 0.813 | 0.986 | 0.19 |  |  |  |  | 
LK-2 | 0.159 | 0.195 | 0.183 | 0.187 | 0.213 | 0.379 | 0.583 | 0.504 | 0.206 | 0.561 |  |  |  |  |  | 0.883 | 0.81 | 0.336 | 0.163 | 0.199
NCI-H358 | 0.108 | 0.11 | 0.0907 |  | 0.115 | 0.324 | 0.382 | 0.32 |  | 0.372 |  |  |  |  |  | 0.454 | 0.312 | 0.174 | 0.161 | 0.182
NCI-H441 | 0.825 | 0.659 | 0.635 | 0.619 | 0.721 | 0.945 | 0.917 | 0.876 | 0.672 | 0.886 | 0.333 | 0.719 | 0.209 | 0.152 | 0.177 |  |  |  |  | 
NCI-H522 | 0.617 | 0.443 | 0.562 | 0.55 | 0.54 | 0.557 | 0.732 | 0.639 | 0.563 | 0.699 |  |  |  |  |  |  |  |  |  | 
NCI-H1299 |  |  |  |  |  |  |  |  |  |  | 0.985 | 1.05 | 0.981 | 0.419 | 0.351 | 0.933 | 0.933 | 0.69 | 0.291 | 0.235
NCI-H1395 | 0.726 | 0.822 | 0.72 | 0.767 | 0.759 | 0.466 | 0.422 | 0.457 | 0.429 | 0.405 |  |  |  |  |  | 0.868 | 0.905 | 0.415 | 0.353 | 0.733

— the supplement of paper PMC10307832
